# Assay results reported in patent publication EP0267740A1, “Naphthyridine and pyridopyrazine compounds and pharmaceutical usage thereof” (SCHERING CORPORATION, priority 1986, dated 1988).
# Columns and labels:
# [1] = test system: release of SRS-A from sensitized guinea pig lung fragments; assay: Measurement of SRS-A release from sensitized guinea pig lung fragments after antigen (ovalbumin) challenge; type: cell-based; conditions: Dose (Molar Conc.) 1 x 10^-5; lung fragments incubated with compound 12 min at 37°C, challenge with 20µg ovalbumin/ml
# Protocol: The anti-allergy property of the compounds of this invention is evaluated by measuring the inhibition of the release of the mediator SRS-A (slow reacting substance of anaphylaxis) from sensitized guinea pig lung fragments after antigen challenge.
# The release of SRS-A and histamine was studied in lungs from actively sensitized guinea pigs. Male Hartley guinea pigs (250-300 g, obtained from Charles River or Dutchland Farms) were sensitized with 5 mg ovalbumin injected intraperitoneally and 5 mg subcutaneously in 1 ml saline on day one, and 5 mg ovalbumin injected intraperitoneally on day four. The sensitized animals were used 3-4 weeks later.
# Sensitized guinea pigs were killed by a blow to the head and the lungs removed and cleaned of visable connective tissue, trachea and large blood vessels. The lungs from individual animals were sliced into fragments approximately 1 mm in thickness using a McIlwain chopper and then washed with oxygenated Tyrode's buffer. Weighed aliquots (approximately 400 mg wet weight) of lung were transferred into vials containing 2 ml of fresh Tyrode's solution and incubated in the presence or absence of test compound for 12 min at 37°C followed by challenge of the tissue with 20µg ovalbumin/ml (final concentration). After an additional 15 min incubation, the vials were cooled to 4°C and 1.5 ml of clear supernatant media was removed and mixed with 6 ml of cold 100% ethanol. This mixture was thoroughly vortexed and kept at -15°C for 30 min to allow precipitation of protein. The samples were then centrifuged at 1000 x g for 15 min at 2°C and the clear supernatant fluid removed into polyethylene tubes and taken to dryness at 50°C under a stream of N₂ gas. The samples were stored at -70°C until assayed for SRS-A by bioassay or radioimmune assay.
# [2] = Reversed Passive Arthus Reaction (RPAR) paw technique, anti-inflammatory test; type: in vivo, Male Lewis inbred albino rats; conditions: Oral Dose 25 mg/kg by gavage in methyl cellulose, rat paw volume 2 hours post-challenge
# Protocol: The compounds of this invention are also effective for the treatment of inflammation; thus they are useful for the treatment of arthritis, bursitis, tendonitis, gout and other inflammatory conditions. […] The potency of the compounds described and claimed herein for treatment of inflammatory conditions is determined using indomethacin as the standard.
# Male Lewis inbred albino rats weighing 180-220 grams obtained from Charles River Breeding Laboratories are used in these experiments. The rats are housed 3 animals/cage and food and water are allowed ad libitum. The animals are numbered 1-3 in each cage and color marked for identification purposes.
# All reagents and drugs are prepared just prior to the study. Crystallized and lyophilized bovine serum albumin (BSA), obtained from Sigma Chemical Company, is solubilized without shaking in cold sterile pyrogen free saline (10 mg/ml). […]
# Groups of animals (6/group) are dosed with drug in MC by gavage one hour prior to sensitization with BSA. […] The volume of mercury displaced is converted to weight and recorded. […] Paw volumes are also recorded with a plethysmograph during the development of the inflammation at 2 and 4 hours post-challenge, and the results are shown in Table B below.
Compound,% Inhibition (INHIBITION OF SRS-A RELEASE FROM GUINEA PIG LUNG) [1] [%],% Inhibition 2 hrs. [2] [%]
"O=C1CCN(c2ccccc2)N1 [1-phenyl-3-pyrazolidinone, reference compound]",41,–
"CCCCc1c(O)c2cccnc2n(-c2ccc3c(c2)CCC3)c1=O [3-(n-BUTYL)-4-HYDROXY-1-(5-INDANYL)-1,8-NAPHTHYRIDIN-2(1H)-ONE]",55,23
CCCCc1c(O)c2cccnc2n(-c2cccnc2)c1=O,33,64
